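A five-concentration, 48-hour dose response in 96-well plates underlies each endpoint, interpolated linearly between surrounding concentrations. TGI denotes the concentration required for complete inhibition of growth.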
Experiments:
Experiment in all cases: NCI-60 cell line screen, 48 h
[1] = tested on: 786-0 renal
[2] = tested on: HCT-116 colon
[3] = tested on: HS 578T breast
[4] = tested on: K-562 leukemia
[5] = tested on: MDA-MB-435
[6] = tested on: NCI-H23 lung
[7] = tested on: NCI-H460 lung
[8] = tested on: NCI/ADR-RES ovarian
[9] = tested on: OVCAR-3 ovarian
[10] = tested on: OVCAR-5 ovarian
[11] = tested on: RXF 393 renal

| SMILES | TGI [1] | TGI [2] | TGI [3] | TGI [4] | TGI [5] | TGI [6] | TGI [7] | TGI [8] | TGI [9] | TGI [10] | TGI [11] |
| --- | --- | --- | --- | --- | --- | --- | --- | --- | --- | --- | --- |
| C[C@H]1CCC/C=C/[C@@H]2C[C@H](OC(=O)CN(C)C)C[C@H]2[C@H](O)/C=C/C(=O)O1 | > 100 µM | 0.746 µM | > 10.5 µM | > 100 µM | > 100 µM | 0.909 µM | 4.05 µM | 0.326 µM | > 26.8 µM | 5.68 µM | 0.155 µM |
| CCCCCC(=O)OC[n+]1cccc(-c2c(COC(=O)NC(C)C)c(COC(=O)NC(C)C)c3n2CCC3)c1 | > 100 µM | > 100 µM | > 100 µM | > 100 µM | > 100 µM | > 100 µM | > 100 µM | > 100 µM | > 100 µM | > 100 µM | > 67.1 µM |
| O=C1C(Cl)=CC2(C=C1Cl)CCN=c1c(O)c3c(c(O)c12)=NC=N3 | > 100 µM | 67.5 µM | > 100 µM | > 100 µM | 32.7 µM | 82.5 µM | > 100 µM | > 100 µM | 89.1 µM | > 100 µM | 70.7 µM |
| Cc1ccc2c(=O)cc(-c3cc(C)sc3C)[nH]c2n1 | > 100 µM | > 69 µM | 7.15 µM | > 100 µM | 2.86 µM | > 24 µM | > 100 µM | 5.29 µM | 58.6 µM | > 100 µM | > 24.4 µM |
| CCOC(=O)c1c(C)n(-c2ccc(C)cc2)c(=O)c2ccccc2c(=O)c2c(=O)ccc(=O)c1=2 | > 100 µM | 33.3 µM | 44.7 µM | 32.1 µM | 30.2 µM | 32 µM | 44.9 µM | 58.4 µM | 29.8 µM | 75.5 µM | 41.3 µM |
| Cc1cc2nnn(C3CCCCO3)c2cc1C (stereo not drawn) | > 100 µM | > 100 µM | > 100 µM | > 100 µM | > 100 µM | > 100 µM | > 100 µM | > 100 µM | > 100 µM | > 100 µM | > 100 µM |
| COc1cc2c(cc1OCCCOc1cc3c(cc1OC)C(=O)N1CCC[C@H]1C(=O)N3)N=C[C@@H]1CCCN1C2=O | > 100 µM | > 100 µM | 84.4 µM | 27.3 µM | 31.5 µM | 57.4 µM | 70.4 µM | > 100 µM | 54 µM | 59.6 µM | 31 µM |
| O=C(/C=C/c1ccccc1)CCN1CCCCC1 | 44.4 µM | 32.1 µM | > 100 µM | > 100 µM | 84.4 µM | 89.8 µM | > 100 µM | > 100 µM | > 100 µM | > 100 µM | 75 µM |
| NC(CCC(=O)O)C(=O)NC(Cc1ccc(N(CCCl)CCCl)cc1)C(=O)O (stereo not drawn) | > 100 µM | > 100 µM | > 100 µM | > 100 µM | > 100 µM | > 100 µM | > 100 µM | > 100 µM | > 100 µM | > 100 µM | > 100 µM |
| O=C(Nc1ccc(Cl)cc1Cl)C1C(=O)OC2(CCCCC2)OC1=O | 30.3 µM | 23.3 µM | 64.9 µM | 43.1 µM | 56 µM | 19.1 µM | 27.4 µM | 26.4 µM | 16.1 µM | 28 µM | 22 µM |
| N/C(CCSCCSCC/C(N)=N\O)=N\O | > 100 µM | > 100 µM | > 100 µM | > 100 µM | > 100 µM | > 100 µM | > 100 µM | > 100 µM | > 100 µM | > 100 µM | > 100 µM |
| CN(/N=C/c1ccccn1)C1=NCCN1 | > 100 µM | > 100 µM | > 100 µM | > 100 µM | > 100 µM | > 100 µM | > 100 µM | > 100 µM | > 100 µM | > 100 µM | > 100 µM |
| COc1cc(Nc2cc(Cl)cc(Cl)c2)nc(N)n1 | 31.8 µM | 31 µM | 57 µM | > 100 µM | 75.8 µM | 49.2 µM | 34 µM | 45.4 µM | 41.1 µM | > 100 µM | 28.4 µM |
| CC[C@@H]1CC[C@@H]2[C@H](CC[C@]3(C)[C@@H](O[N+](=O)[O-])CC[C@@H]23)[C@H]1C(C)=O | > 100 µM | > 100 µM | > 100 µM | > 100 µM | > 100 µM | > 100 µM | 76 µM | > 100 µM | > 100 µM | > 100 µM | > 100 µM |
| COc1cc(CCN)c(OC)c(OC)c1 | > 100 µM | > 100 µM | > 100 µM | > 100 µM | 61.1 µM | > 100 µM | > 100 µM | > 100 µM | > 100 µM | > 100 µM | > 100 µM |
| COC(=O)/C(=N\N)C(C(=O)C(=O)Nc1cc(Cl)ccc1Cl)c1nc2ccc([N+](=O)[O-])cc2[nH]c1=O (stereo not drawn) | > 100 µM | > 100 µM | > 100 µM | > 100 µM | > 100 µM | > 100 µM | > 100 µM | > 100 µM | > 100 µM | > 100 µM | > 100 µM |
| Cc1cccc(C)c1NC(=O)C(=O)CC(=O)c1sc(Nc2c(C)cccc2C)nc1C | > 100 µM | > 100 µM | > 100 µM | > 100 µM | > 100 µM | > 100 µM | > 100 µM | > 100 µM | > 100 µM | > 100 µM | > 100 µM |
| O=C1CSC(c2cc3cc(Br)ccc3nc2Cl)N1c1ccc(Cl)cc1 (stereo not drawn) | > 100 µM | 77 µM | > 100 µM | > 100 µM | 49.5 µM | > 100 µM | 42.1 µM | 75.3 µM | 41.3 µM | > 100 µM | 60.9 µM |

— PubChem BioAssay (NCI)
